Values quoted from earlier work as cited in patent US20050255076A1, “Therapeutic cream for dermatitis” (priority 2004, published 2005).

Settings: in alcohol and in water

## C[S+](C)[O-] [Dimethyl sulfoxide]
  Properties: solubility: Soluble in alcohol and water
